Test results: BindingDB's records for doi:10.1016/j.bmcl.2013.03.030 (Panthera Biopharma, 2013)

Biological target: Botulinum neurotoxin type A (Clostridium botulinum, UniProt P0DPI0)
Experiment: Inhibition of Clostridium botulinum BoNT/A light chain (1 to 429 amino acid) using Abz-Thr-dArg-Ile-Asp-Glu-Ala-Asn-Gln-Arg-Ala-Thr-Lys-Nle-Lys(Dnp)-NH2 as substrate after 10 mins by FRET assay

Botulinum neurotoxin type A, sequence (P0DPI0 2-448 limits assumed): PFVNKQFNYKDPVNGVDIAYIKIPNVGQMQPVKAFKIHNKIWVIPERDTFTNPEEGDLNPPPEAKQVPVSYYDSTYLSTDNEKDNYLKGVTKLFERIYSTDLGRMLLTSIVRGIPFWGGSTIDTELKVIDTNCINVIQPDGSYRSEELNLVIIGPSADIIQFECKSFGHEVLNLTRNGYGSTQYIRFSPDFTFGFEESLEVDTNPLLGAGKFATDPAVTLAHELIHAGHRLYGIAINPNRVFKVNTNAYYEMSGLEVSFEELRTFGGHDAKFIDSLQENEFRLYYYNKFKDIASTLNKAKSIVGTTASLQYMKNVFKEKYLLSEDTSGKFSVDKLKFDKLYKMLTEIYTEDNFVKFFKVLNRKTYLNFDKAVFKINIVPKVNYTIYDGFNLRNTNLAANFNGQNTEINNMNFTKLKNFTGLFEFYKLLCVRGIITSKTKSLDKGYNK

## O=C(Cc1sc(N2CCCC2)nc1O)NO
  Ki: > 300 µM
